Laboratory results taken from ChEMBL document CHEMBL1129915, “A novel RGD containing dodecapeptidomimetic which exhibits selective binding to the v3 receptor” (Bioorg Med Chem Lett, 1997).

Assays:
Assay type in all cases: protein-complex assay
[1] = molecular target: Integrin alpha-IIb/beta-3 (Homo sapiens) (UniProt P05106+P08514); assay: Binding to IIb/IIIa on vitronectin coated microtiter plates in ELISA
[2] = molecular target: Integrin alpha-V/beta-5 (Homo sapiens) (UniProt P06756+P18084); assay: Binding to Vitronectin receptor (alphaV-beta5) coated microtiter plates
[3] = molecular target: Fibronectin receptor (Integrin alpha-5/beta-1 and alpha-V/beta-3) (Homo sapiens) (UniProt P05106+P05556+P06756+P08648); assay: Binding to Fibronectin receptor on vitronectin coated microtiter plates
[4] = molecular target: Integrin alpha-V/beta-3 (Homo sapiens) (UniProt P05106+P06756); assay: Binding to Vitronectin receptor (alphaV-beta3) of PMA stimulated human-derived B lymphocyte on vitronectin coated microtiter plates

Chain of Fibronectin receptor (Integrin alpha-5/beta-1 and alpha-V/beta-3) (Homo sapiens) (P05106 whole entry, looked up): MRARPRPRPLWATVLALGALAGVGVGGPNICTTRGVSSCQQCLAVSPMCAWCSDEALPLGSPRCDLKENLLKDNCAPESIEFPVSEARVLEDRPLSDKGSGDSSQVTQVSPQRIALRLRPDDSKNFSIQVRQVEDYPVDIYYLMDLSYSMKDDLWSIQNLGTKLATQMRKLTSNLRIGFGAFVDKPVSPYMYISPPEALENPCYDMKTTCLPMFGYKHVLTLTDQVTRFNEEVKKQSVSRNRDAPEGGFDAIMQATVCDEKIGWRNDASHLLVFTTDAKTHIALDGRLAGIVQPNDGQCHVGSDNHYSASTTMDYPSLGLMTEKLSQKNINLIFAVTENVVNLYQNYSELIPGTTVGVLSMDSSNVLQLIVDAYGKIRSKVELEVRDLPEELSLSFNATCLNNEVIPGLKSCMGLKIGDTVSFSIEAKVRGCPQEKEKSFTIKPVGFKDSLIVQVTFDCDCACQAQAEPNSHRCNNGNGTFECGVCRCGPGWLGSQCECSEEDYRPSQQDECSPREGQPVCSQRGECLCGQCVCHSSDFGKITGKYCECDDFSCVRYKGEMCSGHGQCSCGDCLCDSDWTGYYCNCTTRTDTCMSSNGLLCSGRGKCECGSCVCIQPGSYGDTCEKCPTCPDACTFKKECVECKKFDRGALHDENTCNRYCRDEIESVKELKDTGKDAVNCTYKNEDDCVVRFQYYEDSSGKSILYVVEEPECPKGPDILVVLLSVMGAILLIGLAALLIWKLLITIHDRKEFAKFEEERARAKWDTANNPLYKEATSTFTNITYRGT
Chain of Fibronectin receptor (Integrin alpha-5/beta-1 and alpha-V/beta-3) (Homo sapiens) (P05556 whole entry, looked up): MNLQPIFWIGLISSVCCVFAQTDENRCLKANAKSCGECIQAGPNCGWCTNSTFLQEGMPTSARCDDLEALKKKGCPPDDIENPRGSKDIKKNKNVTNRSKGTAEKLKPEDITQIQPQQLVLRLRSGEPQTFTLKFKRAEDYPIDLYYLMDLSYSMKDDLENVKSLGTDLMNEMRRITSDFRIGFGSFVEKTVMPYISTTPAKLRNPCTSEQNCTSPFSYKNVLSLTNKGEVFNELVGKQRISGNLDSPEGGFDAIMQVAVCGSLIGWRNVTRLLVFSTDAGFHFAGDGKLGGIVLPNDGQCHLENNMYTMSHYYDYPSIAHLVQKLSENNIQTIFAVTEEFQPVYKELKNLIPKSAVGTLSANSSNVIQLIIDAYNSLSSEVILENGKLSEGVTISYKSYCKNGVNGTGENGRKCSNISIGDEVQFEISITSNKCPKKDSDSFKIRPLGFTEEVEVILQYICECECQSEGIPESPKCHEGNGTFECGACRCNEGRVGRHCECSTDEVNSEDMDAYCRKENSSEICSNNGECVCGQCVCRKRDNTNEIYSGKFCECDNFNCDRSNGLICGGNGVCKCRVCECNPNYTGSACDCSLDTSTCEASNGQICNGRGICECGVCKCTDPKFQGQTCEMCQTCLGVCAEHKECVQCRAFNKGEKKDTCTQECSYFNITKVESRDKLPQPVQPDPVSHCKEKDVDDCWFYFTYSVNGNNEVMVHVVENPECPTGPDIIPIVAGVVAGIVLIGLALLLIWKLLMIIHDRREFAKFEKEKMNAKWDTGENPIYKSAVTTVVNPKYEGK
Chain of Fibronectin receptor (Integrin alpha-5/beta-1 and alpha-V/beta-3) (Homo sapiens) (P06756 whole entry, looked up): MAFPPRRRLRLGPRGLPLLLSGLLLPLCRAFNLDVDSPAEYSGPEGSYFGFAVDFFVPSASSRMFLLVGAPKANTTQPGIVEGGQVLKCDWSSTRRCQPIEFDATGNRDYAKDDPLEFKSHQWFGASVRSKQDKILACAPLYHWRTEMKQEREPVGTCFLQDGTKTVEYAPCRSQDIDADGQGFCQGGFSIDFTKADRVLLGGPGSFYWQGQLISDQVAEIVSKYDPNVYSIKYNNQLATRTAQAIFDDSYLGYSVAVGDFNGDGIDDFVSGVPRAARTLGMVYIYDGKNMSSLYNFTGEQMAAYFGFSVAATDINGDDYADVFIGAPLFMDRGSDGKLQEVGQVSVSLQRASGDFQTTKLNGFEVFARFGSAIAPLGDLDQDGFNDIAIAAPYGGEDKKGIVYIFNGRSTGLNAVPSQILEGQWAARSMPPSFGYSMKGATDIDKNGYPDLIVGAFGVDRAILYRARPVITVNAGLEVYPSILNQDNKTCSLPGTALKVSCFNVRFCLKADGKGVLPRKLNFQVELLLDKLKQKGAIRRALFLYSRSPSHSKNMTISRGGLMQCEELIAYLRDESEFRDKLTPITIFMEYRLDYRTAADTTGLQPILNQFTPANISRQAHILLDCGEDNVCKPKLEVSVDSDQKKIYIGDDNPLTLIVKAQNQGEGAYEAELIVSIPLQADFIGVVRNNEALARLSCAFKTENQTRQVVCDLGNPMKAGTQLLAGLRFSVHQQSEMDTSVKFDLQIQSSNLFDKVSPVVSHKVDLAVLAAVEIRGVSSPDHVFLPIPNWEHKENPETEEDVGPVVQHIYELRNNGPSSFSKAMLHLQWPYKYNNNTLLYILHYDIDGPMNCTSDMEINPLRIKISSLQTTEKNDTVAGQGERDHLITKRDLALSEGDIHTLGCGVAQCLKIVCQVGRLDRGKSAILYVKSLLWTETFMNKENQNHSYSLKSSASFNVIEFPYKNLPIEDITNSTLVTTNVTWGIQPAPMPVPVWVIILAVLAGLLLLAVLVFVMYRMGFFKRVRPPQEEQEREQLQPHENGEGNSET
Chain of Fibronectin receptor (Integrin alpha-5/beta-1 and alpha-V/beta-3) (Homo sapiens) (P08648 whole entry, looked up): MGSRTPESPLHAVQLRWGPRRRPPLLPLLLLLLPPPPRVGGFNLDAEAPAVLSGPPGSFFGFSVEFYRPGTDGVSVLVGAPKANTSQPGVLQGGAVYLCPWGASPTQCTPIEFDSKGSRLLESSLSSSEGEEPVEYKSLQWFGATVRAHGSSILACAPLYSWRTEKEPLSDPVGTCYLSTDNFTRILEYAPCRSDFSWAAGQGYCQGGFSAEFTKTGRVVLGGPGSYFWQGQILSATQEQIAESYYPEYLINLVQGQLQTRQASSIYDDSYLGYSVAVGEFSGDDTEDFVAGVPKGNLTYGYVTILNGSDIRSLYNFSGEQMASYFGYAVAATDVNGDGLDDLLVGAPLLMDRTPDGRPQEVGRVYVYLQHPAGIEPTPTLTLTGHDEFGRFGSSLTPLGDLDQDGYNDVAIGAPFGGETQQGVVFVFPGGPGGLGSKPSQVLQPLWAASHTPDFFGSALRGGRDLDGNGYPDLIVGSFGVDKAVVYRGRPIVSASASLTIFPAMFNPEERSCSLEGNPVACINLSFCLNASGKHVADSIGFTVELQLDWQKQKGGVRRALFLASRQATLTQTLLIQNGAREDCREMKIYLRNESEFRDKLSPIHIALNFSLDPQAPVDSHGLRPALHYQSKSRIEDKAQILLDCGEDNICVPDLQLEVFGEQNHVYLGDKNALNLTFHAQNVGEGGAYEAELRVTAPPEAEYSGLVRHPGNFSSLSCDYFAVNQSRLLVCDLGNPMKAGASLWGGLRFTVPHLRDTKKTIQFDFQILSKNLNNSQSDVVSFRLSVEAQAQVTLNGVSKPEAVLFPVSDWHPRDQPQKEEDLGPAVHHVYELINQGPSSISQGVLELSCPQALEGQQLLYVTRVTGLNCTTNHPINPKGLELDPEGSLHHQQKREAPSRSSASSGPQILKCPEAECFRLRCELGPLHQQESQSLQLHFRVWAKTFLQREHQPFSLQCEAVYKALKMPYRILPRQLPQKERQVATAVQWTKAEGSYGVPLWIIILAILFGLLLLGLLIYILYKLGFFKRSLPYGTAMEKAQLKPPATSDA

- Binding activity [1]: 0.8 µM
- Binding activity [2]: 0.582 µM
- Binding activity [3]: 0.02 µM
- Binding activity [4]: 50 µM
SMILES: NCC(=O)N[C@@H](CCCN=C(N)N)C(=O)NCC(=O)N[C@@H](CC(=O)O)C(=O)N[C@@H](CO)C(=O)N1CCC[C@H]1C(=O)O
